Patent US12721826B2, “Salt of a pharmaceutical compound” (ACTIMED THERAPEUTICS LTD, priority 2023, dated 2026)

How the values were obtained:
[1] = Solid form stability: XRPD re-analysis after drying under vacuum and after storage at 40° C./75% RH; assay type: physicochemical; settings: for XRPD form after drying and storage: after drying at 40° C. under vacuum and storage at 40° C./75% RH; for hygroscopicity properties: overall assessment in words
Protocol: XRPD analysis was carried out on a PANalytical X'pert pro with PIXcel detector (128 channels), scanning the samples between 3 and 35° 2θ. The material was gently ground to release any agglomerates and loaded onto a multi-well plate with Kapton or Mylar polymer film to support the sample. The multi-well plate was then placed into the diffractometer and analysed using Cu K radiation (α1 λ=1.54060 Å; α2=1.54443 Å; β=1.39225 Å; α1: α2 ratio=0.5) running in transmission mode (step size 0.0130° 2θ, step time 18.87s) using 40 kV/40 mA generator settings. Data were visualized and images generated using the HighScore Plus 4.7 desktop application (PANalytical, 2017).
Solutions were allowed to evaporate at ambient temperature (ca. 20° C.) and pressure. Potential salts were dried at 40° C. under vacuum for ca. 19 h and re-analyzed by XRPD then stored at 40° C./75% RH for ca. 19 h and re-analyzed by XRPD.

[2] = counterion acid; cited from earlier work
[3] = 7 days storage stability of dihydrogenphosphate polymorphs (HPLC purity); settings: for stability (comparison of polymorphs, in words): Pattern 3 compared with Pattern 1 and Pattern 2
[4] = storage at 40° C./75% RH, ca. 19 h
[5] = after drying at 40° C. under vacuum

Q: With `C=CCOc1ccccc1OC[C@@H](O)CNC(C)C.O=C(O)C(=O)O` [oxalate Pattern 1, S-oxprenolol oxalate] as the molecule, how does the “XRPD form after drying and storage” value [1] read?
A: oxalate Pattern 1 was retained

Q: For `C=CCOc1ccccc1OC[C@@H](O)CNC(C)C.O=C(O)C(=O)O` [Oxalate Pattern 1 & 2, S-oxprenolol oxalate], which “Observation after storage at 40° C./75% RH” value [1, 4] is on record?
A: predominantly unchanged

Q: With `C=CCOc1ccccc1OC[C@@H](O)CNC(C)C.O=C(O)C(=O)O` [oxalate Pattern 2, S-oxprenolol oxalate] as the molecule, how does the “XRPD form after drying” value [1, 5] read?
A: a mixture of Pattern 1 and 2 was obtained

Q: With `O=S(=O)(O)c1ccccc1` [Benzenesulfonic acid] as the molecule, how does the pKa1 [2] read?
A: 0.7

Q: What does the source list for `O=S(=O)(O)CCS(=O)(=O)O` [Ethane-1,2-disulfonic acid]?
A: pKa1 [2]: −2.1; pKa2 [2]: −1.5

Q: For `O=C(O)CCCC(=O)O` [Glutaric acid], which pKa1 [2] is on record?
A: 4.34

Q: With `C=CCOc1ccccc1OC[C@@H](O)CNC(C)C.O=P(O)(O)O` [S-oxprenolol dihydrogenphosphate Pattern 3] as the molecule, how does the “stability (comparison of polymorphs, in words)” value (from here on “stability”) [3] read?
A: improved stability

Q: What about the “HPLC purity following storage” value ([3]; after 7 days storage at 40° C./75% RH) of the same molecule?
A: > 99.9 % area

Q: And the “HPLC purity following storage” value ([3]; after 7 days storage at ambient temperature)?
A: > 99.9 % area

Q: With `O=C(O)c1ccccc1C(=O)O` [Phthalic acid] as the molecule, how does the pKa1 [2] read?
A: 2.89

Q: And the pKa2 [2]?
A: 5.51

Q: For `C=CCOc1ccccc1OC[C@@H](O)CNC(C)C.CC(=O)O` [Acetate Pattern 2], which “Observation after storage at 40° C./75% RH” value ([1]; material from THF) is on record?
A: partially deliquesce

Q: And the “XRPD result after storage at 40° C./75% RH” value ([1]; material from acetone)?
A: Pattern 2 peaks remained

Q: What about the “Observation after storage at 40° C./75% RH” value ([1]; material from acetone, ethyl acetate and t-BME) of the same molecule?
A: deliquesced

Q: And the “XRPD result after storage at 40° C./75% RH” value ([1]; material from ethyl acetate and t-BME)?
A: Predominantly amorphous material was obtained

Q: For `CC1(C)C2CCC1(CS(=O)(=O)O)C(=O)C2` (stereo not shown) [Camphorsulfonic acid], which pKa1 [2] is on record?
A: 2.2

Q: For `C=CCOc1ccccc1OC[C@@H](O)CNC(C)C.CC(=O)O` [acetate salt], which hygroscopicity properties [1] is on record?
A: poor

Q: Which pKa1 [2] does the source give for `CCS(=O)(=O)O` [Ethanesulfonic acid] here?
A: 2.1

Q: With `O=S(=O)(O)c1cccc2c(S(=O)(=O)O)cccc12` [Naphthalene-1,5-disulfonic acid] as the molecule, how does the pKa1 [2] read?
A: −3.4

Q: What about the pKa2 [2] of the same molecule?
A: −2.6

Q: Which “XRPD form after stress” value ([1]; after heating to 40° C., drying at ambient temperature (ca. 20° C.) under vacuum and storage at 40° C./75% RH) does the source give for `C=CCOc1ccccc1OC[C@@H](O)CNC(C)C.O=P(O)(O)O` [S-oxprenolol dihydrogenphosphate Pattern 1] here?
A: dihydrogenphosphate Pattern 1 to remain

Q: What about the “stability” value [3] of the same molecule?
A: issues with stability

Q: Which “XRPD form after drying” value ([1]; dried under vacuum at ambient temperature (ca. 20° C.) for ca. 69 h, precipitated from ethanol/heptane) does the source give for `C=CCOc1ccccc1OC[C@@H](O)CNC(C)C.O=P(O)(O)O` [S-oxprenolol dihydrogenphosphate Pattern 2] here?
A: phosphate Pattern 3 was obtained after drying

Q: What about the “XRPD form after drying” value ([1]; isolated from temperature cycling in 1-butanol, after drying) of the same molecule?
A: converted to phosphate Pattern 3

Q: What about the “stability” value [3] of the same molecule?
A: issues with stability

Q: For `O=C(O)[C@H](O)[C@@H](O)[C@H](O)[C@H](O)CO` [D-Gluconic acid], which pKa1 [2] is on record?
A: 3.8

Q: For `C=CCOc1ccccc1OC[C@@H](O)CNC(C)C.O=C(O)CNC(=O)c1ccccc1` [hippurate Pattern 1], which “XRPD form after drying” value [1, 5] is on record?
A: hippurate Pattern 1 was retained

Q: What about the hygroscopicity properties [1] of the same molecule?
A: poor

Q: And the “Observation after storage at 40° C./75% RH” value [1, 4]?
A: deliquescence was observed to amorphous materials

Q: With `O=C(O)CNC(=O)c1ccccc1` [Hippuric acid] as the molecule, how does the pKa1 [2] read?
A: 3.6

Q: For `O=C(O)c1cc2ccccc2c(Cc2c(O)c(C(=O)O)cc3ccccc23)c1O` [Pamoic acid], which pKa1 [2] is on record?
A: 2.5

Q: What about the pKa2 [2] of the same molecule?
A: 3.1

Q: For `C=CCOc1ccccc1OC[C@@H](O)CNC(C)C.O=C(O)c1ccc2ccccc2c1O` [xinafoate Pattern 1], which “XRPD form after drying and storage” value [1] is on record?
A: xinafoate Pattern 1 was retained
